Measurements published in the supplement of paper PMC6965134.
± gives the standard deviation of the averaged measurements.

Experiment: TIMS collisional cross section (CCS, N2) of the lipid ion; higher = larger ion cross section
Conditions: ionization mode: negative, one isomer drawn
Method: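 Lipid extracts of human plasma (NIST SRM 1950), mouse liver or HeLa cells were separated by nanoflow C18 LC (30 min gradient) and analysed by TIMS-PASEF on a timsTOF Pro. Ion mobility was calibrated with the Agilent tuning mix (negative mode ions) and converted to collisional cross sections (Mason–Schamp, N2).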

[1] = sample type: Human plasma, ion (formula + adduct): [C46H82NO8P+HCOO] 1-
[2] = sample type: Human plasma, ion (formula + adduct): [C48H84NO8P+HCOO] 1-
[3] = sample type: Mouse Liver, ion (formula + adduct): [C48H84NO8P+HCOO] 1-
[4] = sample type: Mouse Liver, ion (formula + adduct): [C44H80NO8P+HCOO] 1-
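Also: lipids from MTBE extraction, five replicate injections per sample, 100 ms TIMS ramp spanning 0.6–1.95 Vs/cm², lipid identity assigned from PASEF MS/MS spectra.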

CC/C=C\C/C=C\C/C=C\C/C=C\C/C=C\CCCC(=O)O[C@H](COC(=O)CCCCCCCCCCCCCCCCC)COP(=O)([O-])OCC[N+](C)(C)C [PC 18:0_20:5]
TIMS collisional cross section [1]: 299.5 Å²

CCCCC/C=C\C/C=C\C/C=C\C/C=C\CCCCCC(=O)O[C@H](COC(=O)CCCCCCCCCCCCCCCCC)COP(=O)([O-])OCC[N+](C)(C)C [PC 18:0_22:4]
TIMS collisional cross section (sample type: Human plasma, ion (formula + adduct): [C48H88NO8P+HCOO] 1-): 305.1 Å² | TIMS collisional cross section (sample type: Mouse Liver, ion (formula + adduct): [C48H88NO8P+HCOO] 1-): 304.5 Å²

CC/C=C\C/C=C\C/C=C\C/C=C\C/C=C\C/C=C\CCC(=O)O[C@H](COC(=O)CCCCCCCCCCCCCCCCC)COP(=O)([O-])OCC[N+](C)(C)C [PC 18:0_22:6]
TIMS collisional cross section [2]: 303.4 Å² | TIMS collisional cross section [3]: 302.2 Å²

CC/C=C\C/C=C\C/C=C\CCCCCCCC(=O)O[C@H](COC(=O)CCCCCCC/C=C\CCCCCCCC)COP(=O)([O-])OCC[N+](C)(C)C [PC 18:1@_18:3]
TIMS collisional cross section [4]: 292.7 Å²

CCCCC/C=C\C/C=C\C/C=C\C/C=C\CCCC(=O)O[C@H](COC(=O)CCCCCCC/C=C\CCCCCCCC)COP(=O)([O-])OCC[N+](C)(C)C [PC 18:1@_20:4]
TIMS collisional cross section [1]: 298.3 Å²

CCCCCCCC/C=C\CCCCCCCC(=O)OC[C@H](COP(=O)([O-])OCC[N+](C)(C)C)OC(=O)CCCCCCCCCCCCCCCCCC [PC 18:1_19:0]
TIMS collisional cross section (sample type: Mouse Liver, ion (formula + adduct): [C45H88NO8P+HCOO] 1-): 299.5 Å²

CCCCC/C=C\C/C=C\C/C=C\C/C=C\CCCC(=O)O[C@H](COC(=O)CCCCCCC/C=C\CCCCCCCC)COP(=O)([O-])OCC[N+](C)(C)C [PC 18:1_20:4]
TIMS collisional cross section [1]: 298.3 Å² | TIMS collisional cross section (sample type: Mouse Liver, ion (formula + adduct): [C46H82NO8P+HCOO] 1-): 297.7 Å²

CC/C=C\C/C=C\C/C=C\C/C=C\C/C=C\CCCCCC(=O)O[C@H](COC(=O)CCCCCCCCC/C=C\CCCCCC)COP(=O)([O-])OCC[N+](C)(C)C [PC 18:1_22:5]
TIMS collisional cross section [2]: 302.8 Å² | TIMS collisional cross section [3]: 302.2 Å²

CCCCC/C=C\C/C=C\C/C=C\C/C=C\CCCCCC(=O)O[C@H](COC(=O)CCCCCCC/C=C\C/C=C\CCCCC)COP(=O)([O-])OCC[N+](C)(C)C [PC 18:2@_22:4]
TIMS collisional cross section [3]: 301.7 Å²

CCCCC/C=C/C=C\CCCCCCCC(=O)O[C@H](COC(=O)CCCCCCC/C=C\C/C=C/CCCCC)COP(=O)([O-])OCC[N+](C)(C)C [PC 18:2_17:2]
TIMS collisional cross section (sample type: Mouse Liver, ion (formula + adduct): [C43H78NO8P+HCOO] 1-): 289.3 Å²

CCCCCCCCCCCCC/C=C/C=C/C(=O)OC[C@H](COP(=O)([O-])OCC[N+](C)(C)C)OC(=O)/C=C/C=C/CCCCCCCCCCCCC [PC 18:2_18:2]
TIMS collisional cross section (sample type: Human plasma, ion (formula + adduct): [C44H80NO8P+HCOO] 1-): 293.4 ± 0.35 Å² | TIMS collisional cross section [4]: 292.7 Å²

CCCCC/C=C\C/C=C\CCCCCCCC(=O)OC[C@H](COP(=O)([O-])OCC[N+](C)(C)C)OC(=O)CCCCCCCCCCCCCCCCCC [PC 18:2_19:0]
TIMS collisional cross section (sample type: Mouse Liver, ion (formula + adduct): [C45H86NO8P+HCOO] 1-): 299 Å²

CCCCC/C=C\C/C=C\CCCCCCCCCC(=O)O[C@H](COC(=O)CCCCCCC/C=C\C/C=C\CCCCC)COP(=O)([O-])OCC[N+](C)(C)C [PC 18:2_20:2]
TIMS collisional cross section (sample type: Human plasma, ion (formula + adduct): [C46H84NO8P+HCOO] 1-): 299.5 Å²

CCCCC/C=C\C/C=C\C/C=C\CCCCCCC(=O)O[C@H](COC(=O)CCCCCCC/C=C\C/C=C\CCCCC)COP(=O)([O-])OCC[N+](C)(C)C [PC 18:2_20:3]
TIMS collisional cross section [1]: 299.2 Å²

CCCCC/C=C\C/C=C\C/C=C\C/C=C\CCCC(=O)O[C@H](COC(=O)CCCCCCC/C=C\C/C=C\CCCCC)COP(=O)([O-])OCC[N+](C)(C)C [PC 18:2_20:4]
TIMS collisional cross section (sample type: Human plasma, ion (formula + adduct): [C46H80NO8P+HCOO] 1-): 296.8 ± 0.92 Å² | TIMS collisional cross section (sample type: Mouse Liver, ion (formula + adduct): [C46H80NO8P+HCOO] 1-): 295.7 ± 0.42 Å²

CC/C=C\C/C=C\C/C=C\C/C=C\C/C=C\CCCC(=O)O[C@H](COC(=O)CCCCCCC/C=C\C/C=C\CCCCC)COP(=O)([O-])OCC[N+](C)(C)C [PC 18:2_20:5@]
TIMS collisional cross section (sample type: Mouse Liver, ion (formula + adduct): [C46H78NO8P-CH3] 1-): 276.6 Å²
